The values below come from ChEMBL document CHEMBL3991601, “The target landscape of clinical kinase drugs” (Science, 2017).

The source made the active and inactive calls. Rule as the data show it: actives have a measured Kd and inactives only a lower limit.

The target in assay [1] is Serine/threonine-protein kinase B-raf (Homo sapiens, UniProt P15056).
The target of assay [2] is Dual specificity tyrosine-phosphorylation-regulated kinase 1A (Homo sapiens, UniProt Q13627).
The target in assay [3] is T1, Ephrin type-B receptor 4 (Homo sapiens, UniProt P54760).
T1 sequence (P54760 whole entry): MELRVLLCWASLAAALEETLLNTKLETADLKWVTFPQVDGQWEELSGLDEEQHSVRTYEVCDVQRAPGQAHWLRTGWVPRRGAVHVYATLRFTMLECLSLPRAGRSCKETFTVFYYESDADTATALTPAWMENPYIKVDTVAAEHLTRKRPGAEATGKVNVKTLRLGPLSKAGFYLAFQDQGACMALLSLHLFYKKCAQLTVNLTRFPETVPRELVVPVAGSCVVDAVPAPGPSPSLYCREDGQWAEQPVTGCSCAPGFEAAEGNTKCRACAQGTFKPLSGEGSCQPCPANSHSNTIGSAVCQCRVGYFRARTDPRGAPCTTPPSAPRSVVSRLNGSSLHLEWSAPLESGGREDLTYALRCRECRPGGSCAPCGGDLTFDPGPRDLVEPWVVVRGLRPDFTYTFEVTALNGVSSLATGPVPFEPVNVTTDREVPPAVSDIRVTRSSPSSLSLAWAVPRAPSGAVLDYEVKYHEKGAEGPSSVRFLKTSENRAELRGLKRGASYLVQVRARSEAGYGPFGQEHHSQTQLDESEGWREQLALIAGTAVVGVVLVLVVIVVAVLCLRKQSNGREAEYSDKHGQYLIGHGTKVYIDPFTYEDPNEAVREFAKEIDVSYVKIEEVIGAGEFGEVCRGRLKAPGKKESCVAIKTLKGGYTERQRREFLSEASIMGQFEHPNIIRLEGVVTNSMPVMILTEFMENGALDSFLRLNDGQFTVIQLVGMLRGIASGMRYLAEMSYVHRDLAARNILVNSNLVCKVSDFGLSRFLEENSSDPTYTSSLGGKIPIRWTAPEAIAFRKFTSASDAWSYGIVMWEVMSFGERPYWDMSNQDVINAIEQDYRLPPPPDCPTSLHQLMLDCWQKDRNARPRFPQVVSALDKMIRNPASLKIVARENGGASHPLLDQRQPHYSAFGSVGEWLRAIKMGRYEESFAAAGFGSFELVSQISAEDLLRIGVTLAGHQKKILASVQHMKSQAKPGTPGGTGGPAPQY

For assay [4], the target named is T2, Ribosyldihydronicotinamide dehydrogenase [quinone] (Homo sapiens, UniProt P16083).
T2 sequence (P16083 whole entry): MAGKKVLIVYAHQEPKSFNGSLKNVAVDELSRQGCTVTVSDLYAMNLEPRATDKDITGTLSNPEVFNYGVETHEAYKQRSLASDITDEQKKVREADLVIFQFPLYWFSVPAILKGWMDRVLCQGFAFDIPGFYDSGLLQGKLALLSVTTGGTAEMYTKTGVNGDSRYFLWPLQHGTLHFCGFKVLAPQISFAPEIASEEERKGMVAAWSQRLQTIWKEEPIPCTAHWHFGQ

For assay [5], the target named is T3, Serine/threonine-protein kinase PLK4 (Homo sapiens, UniProt O00444).
T3 sequence (O00444 whole entry): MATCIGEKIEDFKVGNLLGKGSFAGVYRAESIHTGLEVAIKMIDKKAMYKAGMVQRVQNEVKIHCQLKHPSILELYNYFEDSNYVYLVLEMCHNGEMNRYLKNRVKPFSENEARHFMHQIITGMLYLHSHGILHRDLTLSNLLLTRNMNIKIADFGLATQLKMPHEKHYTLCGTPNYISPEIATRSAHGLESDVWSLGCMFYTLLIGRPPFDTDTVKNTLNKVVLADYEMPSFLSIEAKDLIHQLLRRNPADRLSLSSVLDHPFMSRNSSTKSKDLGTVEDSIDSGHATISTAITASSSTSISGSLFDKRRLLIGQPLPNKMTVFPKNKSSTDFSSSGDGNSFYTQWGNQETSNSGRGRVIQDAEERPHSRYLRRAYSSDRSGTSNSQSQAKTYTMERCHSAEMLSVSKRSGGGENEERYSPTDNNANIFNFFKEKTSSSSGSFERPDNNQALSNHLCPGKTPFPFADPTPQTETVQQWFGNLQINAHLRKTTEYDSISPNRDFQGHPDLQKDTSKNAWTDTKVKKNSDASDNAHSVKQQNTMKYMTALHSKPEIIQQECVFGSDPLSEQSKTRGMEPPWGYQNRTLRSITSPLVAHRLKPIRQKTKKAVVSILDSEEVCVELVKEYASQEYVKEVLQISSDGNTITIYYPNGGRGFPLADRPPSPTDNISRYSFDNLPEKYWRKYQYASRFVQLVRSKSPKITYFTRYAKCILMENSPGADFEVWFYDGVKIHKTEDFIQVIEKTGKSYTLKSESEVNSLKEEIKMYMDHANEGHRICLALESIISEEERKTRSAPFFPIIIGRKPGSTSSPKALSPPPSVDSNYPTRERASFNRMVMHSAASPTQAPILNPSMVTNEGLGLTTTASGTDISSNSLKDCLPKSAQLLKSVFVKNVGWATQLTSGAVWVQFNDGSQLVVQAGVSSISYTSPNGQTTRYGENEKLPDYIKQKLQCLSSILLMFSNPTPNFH

The target in assay [6] is Ribosomal protein S6 kinase alpha-1 (Homo sapiens, UniProt Q15418).
Ribosomal protein S6 kinase alpha-1, sequence (Q15418 whole entry): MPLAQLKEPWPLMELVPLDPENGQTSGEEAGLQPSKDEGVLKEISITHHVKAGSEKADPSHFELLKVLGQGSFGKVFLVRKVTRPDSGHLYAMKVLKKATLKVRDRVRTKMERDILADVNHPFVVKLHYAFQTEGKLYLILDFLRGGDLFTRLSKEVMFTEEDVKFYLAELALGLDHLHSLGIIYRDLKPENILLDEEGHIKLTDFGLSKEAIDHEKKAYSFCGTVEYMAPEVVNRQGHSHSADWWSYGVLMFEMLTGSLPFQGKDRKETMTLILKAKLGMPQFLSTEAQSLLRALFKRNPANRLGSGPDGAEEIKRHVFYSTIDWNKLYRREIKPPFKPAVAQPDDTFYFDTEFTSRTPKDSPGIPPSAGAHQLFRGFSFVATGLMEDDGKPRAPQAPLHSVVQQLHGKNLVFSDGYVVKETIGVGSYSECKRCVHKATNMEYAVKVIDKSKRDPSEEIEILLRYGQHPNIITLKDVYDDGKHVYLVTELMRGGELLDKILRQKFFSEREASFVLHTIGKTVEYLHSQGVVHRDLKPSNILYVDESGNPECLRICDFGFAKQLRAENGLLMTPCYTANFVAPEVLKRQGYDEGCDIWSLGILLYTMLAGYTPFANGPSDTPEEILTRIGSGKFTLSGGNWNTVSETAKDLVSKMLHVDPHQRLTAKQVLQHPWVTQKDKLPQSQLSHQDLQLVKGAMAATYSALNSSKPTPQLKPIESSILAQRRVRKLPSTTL
Assay [7] concerns the target T4, TGF-beta receptor type-1 (Homo sapiens, UniProt P36897).
T4 sequence (P36897 whole entry): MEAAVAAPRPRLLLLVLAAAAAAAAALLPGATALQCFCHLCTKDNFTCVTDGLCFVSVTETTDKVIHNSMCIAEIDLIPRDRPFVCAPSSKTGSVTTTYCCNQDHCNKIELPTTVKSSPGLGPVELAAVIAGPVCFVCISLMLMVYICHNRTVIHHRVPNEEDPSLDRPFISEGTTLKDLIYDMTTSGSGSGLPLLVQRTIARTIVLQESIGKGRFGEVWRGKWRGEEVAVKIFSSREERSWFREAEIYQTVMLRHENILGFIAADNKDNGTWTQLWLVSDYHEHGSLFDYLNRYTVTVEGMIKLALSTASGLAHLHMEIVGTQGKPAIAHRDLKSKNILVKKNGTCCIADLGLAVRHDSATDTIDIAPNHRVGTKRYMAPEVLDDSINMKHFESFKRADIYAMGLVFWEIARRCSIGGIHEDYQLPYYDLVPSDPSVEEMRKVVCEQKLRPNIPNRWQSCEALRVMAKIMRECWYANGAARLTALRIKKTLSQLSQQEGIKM
Also: in the data inactive means no Kd found up to 30 µM.

Serine/threonine-protein kinase B-raf, sequence (P15056 whole entry): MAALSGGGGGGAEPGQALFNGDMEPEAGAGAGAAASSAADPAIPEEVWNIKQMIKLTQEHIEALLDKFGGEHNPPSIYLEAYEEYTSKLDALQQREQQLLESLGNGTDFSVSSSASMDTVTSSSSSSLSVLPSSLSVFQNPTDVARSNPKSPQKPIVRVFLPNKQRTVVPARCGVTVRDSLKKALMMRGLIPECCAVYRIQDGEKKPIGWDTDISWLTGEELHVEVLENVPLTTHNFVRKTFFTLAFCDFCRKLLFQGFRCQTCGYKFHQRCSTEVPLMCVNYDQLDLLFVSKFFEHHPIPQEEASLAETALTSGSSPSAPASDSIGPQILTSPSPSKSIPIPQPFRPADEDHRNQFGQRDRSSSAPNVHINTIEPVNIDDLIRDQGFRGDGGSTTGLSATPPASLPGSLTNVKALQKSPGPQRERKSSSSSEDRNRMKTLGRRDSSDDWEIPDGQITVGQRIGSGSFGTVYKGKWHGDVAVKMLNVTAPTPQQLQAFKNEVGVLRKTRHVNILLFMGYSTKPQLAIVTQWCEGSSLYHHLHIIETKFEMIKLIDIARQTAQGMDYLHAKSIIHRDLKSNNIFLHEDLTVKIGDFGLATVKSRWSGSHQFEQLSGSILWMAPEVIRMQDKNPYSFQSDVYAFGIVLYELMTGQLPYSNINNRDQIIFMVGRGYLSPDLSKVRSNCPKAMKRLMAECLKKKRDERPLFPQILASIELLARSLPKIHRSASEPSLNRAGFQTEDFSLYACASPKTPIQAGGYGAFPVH

Consider `CC[C@@H]1C(=O)N(C)c2cnc(Nc3ccc(C(=O)N[C@H]4CC[C@H](N5CCN(CC6CC6)CC5)CC4)cc3OC)nc2N1C(C)C` [VOLASERTIB], for which the Kd in assay [1], in assay [2], in assay [3], in assay [4], in assay [5] and in assay [6] was > 30 µM (inactive) throughout. In addition, in assay [7], the Kd is > 30 µM (inactive).

As to `Cc1ccc(S(=O)(=O)Nc2nc3ccccc3nc2Nc2ccc3nsnc3c2)cc1`, the Kd in assay [1], in assay [2], in assay [3], in assay [4], in assay [5] and in assay [6] was > 30 µM (inactive) throughout. The Kd in assay [7] was > 30 µM (inactive).

Turning to `OCCn1cc(-c2cnc3nnn(Cc4ccc5ncccc5c4)c3n2)cn1` [PF-04217903], the Kd in assay [1], in assay [3], in assay [4], in assay [5], in assay [6] and in assay [7] was > 30 µM (inactive) throughout.

In the case of `CCCS(=O)(=O)Nc1ccc(F)c(C(=O)c2c[nH]c3ncc(-c4ccc(Cl)cc4)cc23)c1F` [VEMURAFENIB], the Kd in assay [2], in assay [3], in assay [4], in assay [5], in assay [6] and in assay [7] was > 30 µM (inactive) in each case.

As to `CCn1c(-c2nonc2N)nc2c(C#CC(C)(C)O)ncc(OC[C@H]3CCCNC3)c21` [GSK-690693], in assay [4], the Kd is > 30 µM (inactive).

`Cc1cc(Nc2cc(N3CCN(C)CC3)nc(/C=C/c3ccccc3)n2)n[nH]1` [ENMD-2076]: the Kd in assay [1], in assay [3], in assay [4], in assay [6] and in assay [7] was > 30 µM (inactive) throughout.

As for `COC(=O)N[C@@H](C)CNc1nccc(-c2cn(C(C)C)nc2-c2cc(Cl)cc(NS(C)(=O)=O)c2F)n1` [ENCORAFENIB], the Kd in assay [2], in assay [3], in assay [4], in assay [5], in assay [6] and in assay [7] was > 30 µM (inactive) in each case.

`Nc1nc(N)c2nc(-c3cccc(O)c3)c(-c3cccc(O)c3)nc2n1` [TG100-115]: the Kd in assay [4] was > 30 µM (inactive).

Take `CN1CCN(c2ccc3nc(-c4c(N)c5c(F)cccc5[nH]c4=O)[nH]c3c2)CC1` [DOVITINIB]: the Kd in assay [4] was 3.01 µM (active).

Take `O=C(Nc1cccc(Cl)c1)Nc1ncc(CCNc2ncnc3ccsc23)s1` [SNS-314]: the Kd in assay [3], in assay [4], in assay [6] and in assay [7] was > 30 µM (inactive) each time.

Consider `C1=C/COCc2cc(ccc2OCCN2CCCC2)Nc2nccc(n2)-c2cccc(c2)COC/1` [PACRITINIB], for which the Kd in assay [1], in assay [2], in assay [3], in assay [5], in assay [6] and in assay [7] was > 30 µM (inactive) in each case.

Turning to `CCc1cnn2c(NCc3ccc[n+]([O-])c3)cc(N3CCCC[C@H]3CCO)nc12` [DINACICLIB], the Kd in assay [1], in assay [3], in assay [4], in assay [5], in assay [6] and in assay [7] was > 30 µM (inactive) each time.

Regarding `COc1cc2nccc(Oc3ccc(NC(=O)NC4CC4)c(Cl)c3)c2cc1C(N)=O` [LENVATINIB], the Kd in assay [2] is > 30 µM (inactive); in assay [3] it was > 30 µM (inactive); in assay [4], 1.52 µM (active); in assay [7], > 30 µM (inactive).

Regarding `COc1cc2nccc(Oc3ccc(NC(=O)Nc4cc(C)on4)c(Cl)c3)c2cc1OC` [TIVOZANIB], the Kd in assay [2], in assay [4], in assay [5], in assay [6] and in assay [7] was > 30 µM (inactive) throughout.

For the compound `C[C@@H](c1ccc2nccn2c1)n1nnc2ncc(-c3cnn(C)c3)nc21` [SAVOLITINIB], the Kd in assay [1] is > 30 µM (inactive); in assay [2], > 30 µM (inactive); in assay [3], > 30 µM (inactive); in assay [4] it was 0.206 µM (active); in assay [6], > 30 µM (inactive); in assay [7], > 30 µM (inactive).

In the case of `Cc1nc(N)sc1-c1ccnc(Nc2ccc(N3CCOCC3)cc2)n1` [CYC-116], the Kd in assay [1] is > 30 µM (inactive); in assay [3] it was 4.61 µM (active); in assay [4] it was 0.648 µM (active); in assay [6], > 30 µM (inactive).

Turning to `CNC(=O)c1cc(Oc2ccc(NC(=O)Nc3ccc(Cl)c(C(F)(F)F)c3)c(F)c2)ccn1` [REGORAFENIB], the Kd in assay [2], in assay [3], in assay [4], in assay [5], in assay [6] and in assay [7] was > 30 µM (inactive) in each case.

In the case of `Cc1cn(-c2cc(NC(=O)c3ccc(C)c(Nc4nccc(-c5cccnc5)n4)c3)cc(C(F)(F)F)c2)cn1` [NILOTINIB], the Kd in assay [4] is 1.48 µM (active).
